This note sets out measurements from patent publication US20080193938A1, “Materials And Methods Relating To Breast Cancer Classification” (priority 2005, published 2008).

The subject of one experiment is MCF-7 cells. Description: Tamoxifen induced apoptosis, Annexin-V flow cytometry in control and RLN2 silenced MCF-7 cells. In kind it is cell-based. The settings on record: 1 μM tamoxifen for 48 hrs, analyzed 72 hrs after withdrawal. The procedure:
FIG. 13B. Flow cytometric analysis of Tamoxifen sensitivity in RLN2 silenced MCF-7 cells: RLN2 silenced and control cells were treated with 1 μm Tamoxifen or equivalent quantity of vehicle for 48 hrs and subsequently, the treatment was withdrawn. After 72 hrs, Annexin-V staining positive cells were scored in Flow cytometry, which is a measure for tamoxifen induced apoptosis.
MCF-7 cells (ATCC) were maintained in DMEM growth media supplemented with 10% fetal bovine serum (FBS), 100 U/mL penicillin, 100 U/mL streptomycin, and 2 mM L-glutamine. […] RLN2 silenced and control cells were treated with 1 μM Tamoxifen or equivalent quantity of vehicle for 48 hrs and subsequently, the treatment was withdrawn by changing the culture media to DMEM with 5% DCC. After 72 hrs, cells were trypsinized and stained with Annexin-V-Fluorescein and propidium iodide as recommended by the manufacturer (Roche) and the analyzed in Flow cytometer (Beckman-Coulter). The population of annexin-V positive cells was scored as the representation of the percentages of apoptotic cells.
To functionally investigate the association of the TuM1 signature with a tumor's response to anti-hormonal treatment, the role of a representative TuM1 gene, Relaxin2 (RLN2) was assessed in a ER+ breast cancer cellular model. […]
(In general: Flow cytometry measures light scatter and fluorescence of single cells or particles in a stream.)

The subject of another experiment is TuM1 module. Description: Gene set enrichment analysis of tumor module expression in tamoxifen treated MCF7 cells. Format: cell-based. To be noted: 10 μM tamoxifen, harvested at 48 hrs; FDR=0.05. The procedure:
MCF-7 breast cancer cells were obtained from American Type Culture Collection center (Manassas, Va.), and cells were cultured in Dulbecco's modified Eagle medium (DMEM) (Gibco, Grand Island, N.Y.) supplemented with 10% fetal bovine serum (FBS), 100 U/mL penicillin, 100 U/mL streptomycin, and 2 mM L-glutamine. Before tamoxifen treatment, cells were washed three times in PBS and maintained in phenol red free DMEM with 5% Dextran charcoal-stripped FBS (HyClone Laboratories, Pittsburgh, Pa.) for 24 hrs. Subsequently cells were treated with 10 μM tamoxifen (Sigma) and harvested at 48 hrs. Control sister cultures were treated with an equivalent volume of the vehicle (0.1% ethanol).
GSEA was used to ask if expression of the tumor module genes might be affected by tamoxifen treatment. Four control samples and two post-treatment samples (See Materials and Methods) were used for GSEA analysis. Three modules (TuM4, 5 and 6) were filtered out due to insufficient number of genes (<10) expressed in MCF7 cell lines.
The observation that TuM1 is expressed in a subset of ER+ tumors raises the possibility that expression of this module may depend, at least in some part, on ER activity and signaling. To investigate the relationship between TuM1 expression and ER signaling, we tested the responsiveness of TuM1 to ER activity using an in vitro system. […]

On to `CC/C(=C(\c1ccccc1)c1ccc(OCCN(C)C)cc1)c1ccccc1` [tamoxifen], for which the “percentage of apoptotic (annexin-V-staining positive) cells” value in the experiment on MCF-7 cells (RLN2 silenced (siRNA) MCF-7 cells) was “about 23%”; in the experiment with MCF-7 cells (control MCF-7 cells), “about 73%”. The “TuM1 expression in tam-treated MCF7 cells compared to controls (GSEA)” value in the experiment with TuM1 module is “significantly downregulated”.
